From publication PMC11881662 (Journal of Enzyme Inhibition and Medicinal Chemistry, 2025)
≈ marks a conversion by molar mass, not a printed value. Where “and” joins values, the source holds several entries; their conditions need not be identical. Equal entries are not always repeated.

Columns and labels:
plasmid pBR322 [1] = assay: Ethidium bromide assay, DNA-binding effects on plasmid pBR322; conditions: EtBr-DNA complex, compound 10 μM, 25 °C 30 min; no drug = 100% fluorescence
[2] = test system: MCF-7 breast cancer cell line; assay: In vitro anti-proliferative MTT assay; format: cell-based, human; conditions: for IC50: Homo sapiens, MCF7, 24 h, read-out: MCF-7 IC50; for Selectivity index (SI): IC50 against normal cells (HSF) divided by IC50 against cancer cells (MCF-7)
[3] = test system: normal human skin fibroblasts (HSF); assay: Normal cytotoxicity evaluation, MTT; format: cell-based; conditions: Skin fibroblast, 24 h, read-out: Normal HSF IC50
MCF-7 cells [4] = assay: Apoptosis induction, Annexin V-FITC/PI flow cytometry; format: cell-based, human; conditions: MCF-7, at IC50, 24 h
MCF-7 cells [5] = assay: Wound healing assay; format: cell-based, human; conditions: MCF-7, at IC50 concentrations
recombinant human DHFR = target: T1, recombinant human DHFR (Homo sapiens, UniProt P00374); assay: Dihydrofolate reductase; format: biochemical
T1 sequence (P00374 1-187): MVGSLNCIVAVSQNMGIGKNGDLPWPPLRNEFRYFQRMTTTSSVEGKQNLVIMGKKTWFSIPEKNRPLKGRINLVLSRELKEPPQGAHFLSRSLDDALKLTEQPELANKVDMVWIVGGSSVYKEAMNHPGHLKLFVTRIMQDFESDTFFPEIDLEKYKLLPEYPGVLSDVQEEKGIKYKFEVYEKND

calf thymus DNA = assay: Ethidium bromide assay, DNA-binding effects on calf thymus DNA; conditions: EtBr-DNA complex, compound 10 μM, 25 °C 30 min
T4 coliphage DNA = assay: Ethidium bromide assay, DNA-binding effects on T4 coliphage DNA; conditions: EtBr-DNA complex, compound 10 μM, 25 °C 30 min
poly(dG-dC)2 = assay: Ethidium bromide assay, DNA-binding effects on poly; conditions: EtBr-DNA complex, compound 10 μM, 25 °C 30 min
poly(dA-dT)2 = assay: as above; conditions: EtBr-DNA complex, compound 10 μM, 25 °C 30 min
plasmid pBR322 [6] = conditions: NT under the same conditions; cited from earlier work

SMILES | Decrease in fluorescence (%) pBr322 (plasmid pBR322 [1]) | IC50 [2] | IC50 [3] | Percentage of necrosis (MCF-7 cells [4]) | % Wound closure after 24 h treatment (MCF-7 cells [5]) | IC50 (recombinant human DHFR) | Decrease in fluorescence (%) Calf Thymus DNA (calf thymus DNA) | Decrease in fluorescence (%) T4 DNA (T4 coliphage DNA) | Decrease in fluorescence (%) Poly (dG-dC)2 (poly(dG-dC)2) | Decrease in fluorescence (%) Poly (dA-dT)2 (poly(dA-dT)2) | Selectivity index (SI) [2] | Percentage of total apoptosis (MCF-7 cells [4]) | Decrease in fluorescence (%) pBr322 (degree of EtBr displacement) (plasmid pBR322 [6])
CN(Cc1cnc2nc(N)nc(N)c2n1)c1ccc(C(=O)N[C@@H](CCC(=O)O)C(=O)O)cc1 [MTX, Methotrexate, reference compound] | 100% | 56.9 µg/mL (≈ 125 µM) | 126 µg/mL (≈ 276 µM) | 6.50% | 45.46% |  |  |  |  |  |  |  | 
COc1cccc2c1C(=O)c1c(O)c3c(c(O)c1C2=O)C[C@@](O)(C(=O)CO)C[C@@H]3O[C@H]1C[C@H](N)[C@H](O)[C@H](C)O1 [DOX, doxorubicin, reference compound] | 100% |  |  |  |  | 8.31 ± 0.06 µM |  |  |  |  |  |  | 
COc1ccc(-c2csc(N/N=C(/C=C/c3ccc(Cl)cc3)C(=O)O)n2)cc1 [Compound 7, (2Z,3E)-4-(4-Chlorophenyl)-2-(2-(4-(4-methoxyphenyl)thiazol-2-yl)hydrazinylidene)but-3-enoic acid] | 62.36% |  |  |  |  | 39.41 ± 0.03 µM | 44.21% | 36.58% | 62.38% |  |  |  | 
O=C(O)C(/C=C/c1ccc(Cl)cc1)=N\Nc1nc(-c2ccc(F)cc2)cs1 [Compound 8, (2Z,3E)-4-(4-Chlorophenyl)-2-(2-(4-(4-fluorophenyl)thiazol-2-yl)hydrazinylidene)but-3-enoic acid] | 60.93% |  |  |  |  | 10.51 ± 0.05 µM | 40.00% | 37.19% | 62.99% | 52.83% |  |  | 
O=C(O)C(/C=C/c1ccc(Cl)cc1)=N\Nc1nc(-c2ccccc2)cs1 [Compound 5, (2Z,3E)-4-(4-Chlorophenyl)-2-(2–(4-phenylthiazol-2-yl)hydrazinylidene)but-3-enoic acid] | 63.44% | 2.72 µg/mL (≈ 7.09 µM) | 32.6 µg/mL (≈ 84.8 µM) | 3.09% | 45.19% | 0.08 ± 0.001 µM | 63.15% | 28.05% | 67.28% | 56.91% | 11.97 | 29.63% | 
O=C(O)C(/C=C/c1c(Cl)cccc1Cl)=N\Nc1nc(-c2ccc(F)cc2)cs1 [Compound 15, (2Z,3E)-4-(2,6-dichlorophenyl)-2-(2-(4-(4-fluorophenyl)thiazol-2-yl)hydrazinylidene)but-3-enoic acid] | 70.97% |  |  |  |  | 62.31 ± 0.02 µM | 72.10% | 39.02% | 57.81% | 55.27% |  |  | 
O=C(O)C(/C=C/c1ccc(Cl)cc1)=N\Nc1nc(-c2ccc(Cl)cc2)cs1 [Compound 9, (2Z,3E)-4-(4-Chlorophenyl)-2-(2-(4-(4-chlorophenyl)thiazol-2-yl)hydrazinylidene)but-3-enoic acid] | 53.40% |  |  |  |  | 36.18 ± 0.01 µM | 53.68% | 50.00% | 49.23% | 71.19% |  |  | 
COc1ccc(-c2csc(N/N=C(/C=C/c3c(Cl)cccc3Cl)C(=O)O)n2)cc1 [Compound 14, (2Z,3E)-4-(2,6-dichlorophenyl)-2-(2-(4-(4-methoxyphenyl)thiazol-2-yl)hydrazinylidene)but-3-enoic acid] | 51.61% |  |  |  |  | 31.02 ± 0.04 µM | 58.95% | 40.85% | 61.25% | 67.21% |  |  | 
O=C(O)C(/C=C/c1c(Cl)cccc1Cl)=N\Nc1nc(-c2ccc([N+](=O)[O-])cc2)cs1 [Compound 18, (2Z,3E)-4-(2,6-dichlorophenyl)-2-(2-(4-(4-nitrophenyl)thiazol-2-yl)hydrazinylidene)but-3-enoic acid] | 55.56% |  |  |  |  | 63.18 ± 0.01 µM | 76.84% | 45.12% | 62.50% | 37.00% |  |  | 
O=C(O)C(/C=C/c1ccc(Cl)cc1)=N\Nc1nc(-c2ccc(Br)cc2)cs1 [Compound 10, (2Z,3E)-4-(4-Chlorophenyl)-2-(2-(4-(4-bromophenyl)thiazol-2-yl)hydrazinylidene)but-3-enoic acid] | 53.76% |  |  |  |  | 58.29 ± 0.02 µM | 30.53% | 32.32% | 50.15% | 39.34% |  |  | 
Cn1cc(NC(=O)c2cc(NC(=O)CN=C(N)N)cn2C)cc1C(=O)NCCC(=N)N [NT, netropsin, reference compound] |  |  |  |  |  |  | 90.24% | 70.06% | 85% and 85.13% | 62.02% |  |  | 74%
O=C(O)C(/C=C/c1c(Cl)cccc1Cl)=N\Nc1nc(-c2ccc(Br)cc2)cs1 [Compound 17, (2Z,3E)-4-(2,6-dichlorophenyl)-2-(2-(4-(4-bromophenyl)thiazol-2-yl)hydrazinylidene)but-3-enoic acid] | 61.65% |  |  |  |  | 60.28 ± 0.02 µM | 54.21% | 35.36% | 63.44% | 42.62% |  |  | 
O=C(O)C(/C=C/c1c(Cl)cccc1Cl)=N\Nc1nc(-c2ccc(Cl)cc2)cs1 [Compound 16, (2Z,3E)-4-(2,6-dichlorophenyl)-2-(2-(4-(4-chlorophenyl)thiazol-2-yl)hydrazinylidene)but-3-enoic acid] | 64.16% |  |  |  |  | 53.18 ± 0.01 µM | 50.53% | 52.44% | 63.12% | 51.29% |  |  | 
Cc1ccc(-c2csc(N/N=C(/C=C/c3c(Cl)cccc3Cl)C(=O)O)n2)cc1 [Compound 13, (2Z,3E)-4-(2,6-dichlorophenyl)-2-(2-(4-(4-tolyl)thiazol-2-yl)hydrazinylidene)but-3-enoic acid] | 62.01% |  |  |  |  | 18.06 ± 0.03 µM | 67.71% | 51.22% | 75.62% | 55.74% |  |  | 
COc1cc(Cc2cnc(N)nc2N)cc(OC)c1OC [TMP, trimethoprim, reference compound] | 100% |  |  |  |  |  |  |  |  |  |  |  | 
O=C(O)C(/C=C/c1c(Cl)cccc1Cl)=N\Nc1nc(-c2ccccc2)cs1 [Compound 12, (2Z,3E)-4-(2,6-dichlorophenyl)-2-(2-(4-phenylthiazol-2-yl)hydrazinylidene)but-3-enoic acid] | 54.84% |  |  |  |  | 21.06 ± 0.02 µM | 60.53% | 48.17% | 59.37% | 54.80% |  |  | 
O=C(O)C(/C=C/c1ccc(Cl)cc1)=N\Nc1nc(-c2ccc([N+](=O)[O-])cc2)cs1 [Compound 11, (2Z,3E)-4-(4-Chlorophenyl)-2-(2-(4-(4-nitrophenyl)thiazol-2-yl)hydrazinylidene)but-3-enoic acid] | 56.21% | 12.5 µg/mL (≈ 29.2 µM) | 84.4 µg/mL (≈ 197 µM) | 4.81% | 52.72% | 0.06 ± 0.03 µM | 46.31% | 28.89% | 56.57% | 53.39% | 6.74 | 23.99% | 
